Data set [1] relates to human rhabdomyosarcoma RH-30 xenograft. The data set is described as follows: RH-30 xenograft on nude mice.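 Further: male BALB/cA nude mice with subcutaneous RH-30 tumors, oral dosing versus solvent-fed controls, caliper tumor volume, RTV relative to grouping day, T/C as treated RTV over control RTV ×100.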 To be noted: Table 4, 5 mg/kg po, 1-5/2 w.
Excerpt: Animals: BALB/cA nude mice, male, 40-45 days old, body weight: 21±2 g, provided by Shanghai Institute of Materia Medica, Chinese Academy of Sciences. License No.: SCXK (Shanghai) 2004-0002. Animal number in each group: 6 in negative control group, and 6 in administration group.
The amount of inoculated cells was 5×10^6. After the xenograft was formed by inoculation, it was used after passed for 3 generations in nude mice.
A further data set has as its target T1, FKBP-12 protein (Homo sapiens, UniProt P62942).
T1 construct: purchased sigma Co
The data set is described as follows: SPR (surface plasma resonance) binding with FKBP-12. Here is the method: (1) FKBP-12 protein was purchased from sigma Co.
(2) HBS-EP buffer solution (10 mM Hepes, 150 mM NaCl, 3.4 mM EDTA, 0.005% (v/v) surfactant P20, pH 7.4)
(3) Activating reagents EDC and NHS, and blocking reagents Ethanolamine, etc., were purchased from BIACORE AB Co. (Uppsala, Sweden).
(4) BIAcore 3000 and CM5 chip were purchased from BIACORE AB Co. (Uppsala, Sweden).
(2) […] was coupled to the FC2 channel on CM5 chip by using the Wizard for amino-coupling in Biacore 3000 controlling soft. 3.3 g/L of FKBP-12 protein was diluted with 10 mM NaAC (pH 4.6) to 66 μg/ml. The surface of the chip was washed by injecting a mixture of 0.1M1-(3-dimethylaminopropyl)-3-ethylcarbodiimide hydrochloride (EDCI) and 0.1M N-hydroxysuccinimide (NHS) (1:1) at a flow rate of 20 μL/min for 7 min. After that, the protein solution was injected, and then a 1M cholamine (pH 8.5) solution was fed for 7 min to block the activated surface of the chip. Preliminary screening and pharmacokinetic tests on the compounds
The binding abilities of small molecular compounds with FKBP-12 protein were evaluated by SPR (surface plasma resonance). The stock solution of the compound was 10 mM, and was diluted by HBS-EP buffer solution at given ratios. Pharmacokinetic tests were carried out by the Wizard for kinetic analysis in Biacore 3000 controlling soft. The resulted data were fitted by 1:1 Langmuir binding model or stability model in Biacore 3000 analytical soft to obtain the exact kinetic and thermodynamic constants.

The next data set is described as follows: in vivo. The data set is classed as in vivo. The conditions noted are these: nude, mouse; for concentration at 0.5 h / concentration at 12 h / concentration at 48 h / concentration at 2 h / concentration at 5 h: CCI-779 (prototype) concentration; for Kp: read-out: AUCtissue/AUCplasma.
The test system of data set [2] is human osteosarcoma U2SO xenograft. The data set is described as follows: U2SO xenograft on nude mice. The conditions noted are these: Table 5, oral 2.5 mg/kg, 1-5/3 w.
A short description of data set [3]: Immunosuppressive activity assay: cytotoxicity. The format is cell-based.
Another data set has as its system T Cells. The data set is described as follows: Immunosuppressive activity assay: T cells inhibitory activity. The format is cell-based. To be noted: T-cell; Table 10.
For data set [4], the system named is DNFB-induced delayed type hypersensitivity reaction. The data set is described as follows: DNFB-induced delayed type hypersensitivity reaction in mice. The format is in vivo, BALB/c mice. The conditions noted are these: 2 mg/kg/d, oral administration; model control 0.175 mm. As to the method: The delayed type hypersensitivity (DTH) reaction in mice was induced by DNFB to evaluate the inhibition effect of the compound on DTH in vivo. […] Preparation method: the compound was dissolved in anhydrous alcohol to prepare a stock solution (50 mg/ml), which was diluted to the desired concentration when use by using a solution of 5% PEG400, 5% Tween-80 in sterile water as a solvent. […] DNFB combined with dermal protein to form a complete antigen after sensitizing on feet of mice. One week later, mice were attacked by DNFB on ears to induce a local delayed allergic reaction, i.e., the delayed type hypersensitivity reaction to cause ear swelling, while the delayed type hypersensitivity reaction would not be observed on the ear which had not been attacked. Therefore, the ear swelling can reflect the level of the delayed type hypersensitivity reaction in mice induced by DNFB. (1) 20 μl of 0.5% DNFB solution in a mixture of acetone and olive oil (4:1) as a solvent was applied on both hind legs of mice for sensitization. […] (4) Thickness of the left and right ears of the mice was measured by a micrometer screw gauge, and the swelling was calculated by subtracting the thickness of the left ear from thickness of the right ear.

Setting [5] is: in vivo, Blood Plasma, Mean Value.

The results in this text go back to patent US8455510B2.

Where two headings read alike, the source gives them in different places. Bounds are passed on as bounds.

As usually defined, the Kd is the constant that tells how readily two partners part at equilibrium. A low value points to a tighter complex. What is called AUC(0-t) is exposure summed from dosing to a finite time, without extrapolation to infinity. Usually Cmax stands for the peak of the concentration-time curve. Usually CC50 stands for the concentration giving 50% cytotoxicity. Broadly, the IC50 is the midpoint of a concentration-inhibition curve. A higher IC50 goes with lower potency.

T1 sequence (P62942 whole entry, species assumed): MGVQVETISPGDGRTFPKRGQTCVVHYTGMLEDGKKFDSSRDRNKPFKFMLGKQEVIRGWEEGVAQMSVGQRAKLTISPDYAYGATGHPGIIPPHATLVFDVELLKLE

`CO[C@H]1CC2CC[C@@H](C)[C@@](O)(O2)C(=O)C(=O)N2CCCCC2C(=O)O[C@H]([C@H](C)C[C@@H]2CC[C@@H](O)[C@H](OC)C2)CC(=O)[C@H](C)/C=C(\C)[C@@H](OC(=O)OCC(O)CO)[C@@H](OC)C(=O)[C@H](C)C[C@H](C)/C=C/C=C/C=C/1C` (some centres unmarked) [Y31-1]: in data set [1], the “Body Weight (g) end” value is recorded as 21.2 g, the “Body Weight (g) start” value is listed as 20.2 g, the RTV came out at 2.4 ± 1.0 and the “T/C (%)” value turned out to be 55.7%. Further, the “TV (mm^3) d14” value in data set [1] is recorded as 381 ± 158 mm^3. In addition, the “TV (mm^3) d0” value in data set [1] (baseline) turned out to be 164 ± 44 mm^3.
Turning to `CO[C@H]1C[C@@H]2CC[C@@H](C)[C@@](O)(O2)C(=O)C(=O)N2CCCC[C@H]2C(=O)O[C@H]([C@H](C)C[C@@H]2CC[C@@H](OC(=O)C(C)(CO)CO)[C@H](OC)C2)CC(=O)[C@H](C)/C=C(\C)[C@@H](O)[C@@H](OC)C(=O)[C@H](C)C[C@H](C)/C=C/C=C/C=C/1C` [CCI-779], the “binding with FKBP12” value on FKBP-12 protein is “concentration-dependently bind”. On FKBP-12 protein (FKBP12), this compound came in with a Kd of 0.00102 µM. Also, in the data set “in vivo” (in vivo), the “AUC0-t (ng · h/g or ng · h/ml)” value came out at 1098 ng·h/mL and the AUC(0-t) came to 106 ng·h/mL. Besides, in “in vivo” (in vivo, 0.5 h), the “Sirolimus concentration, Blood Plasma, Mean Value” amounted to 123 ng/mL; the “Sirolimus concentration, Liver, Mean Value” is 142 ng/g; the “Sirolimus concentration, Tumor, Mean Value” stood at 9.03 ng/g. For the same compound, in “in vivo” (in vivo, 2 h), the “Sirolimus concentration, Blood Plasma, Mean Value” was 143 ng/mL; the “Sirolimus concentration, Liver, Mean Value” is 98.4 ng/g; the “Sirolimus concentration, Tumor, Mean Value” amounted to 36.3 ng/g. For the same compound, in the data set “in vivo” (in vivo, 5 h), the “Sirolimus concentration, Blood Plasma, Mean Value” worked out at 58.2 ng/mL; the “Sirolimus concentration, Liver, Mean Value” turned out to be 83.9 ng/g; the “Sirolimus concentration, Tumor, Mean Value” is 30.3 ng/g. Further, in “in vivo” (in vivo, 12 h), the “Sirolimus concentration, Blood Plasma, Mean Value” came out at 14.2 ng/mL; the “Sirolimus concentration, Liver, Mean Value” is 33.2 ng/g; the “Sirolimus concentration, Tumor, Mean Value” came to 19.1 ng/g. In the data set “in vivo” (in vivo, 48 h), the “Sirolimus concentration, Blood Plasma, Mean Value” was determined as 3.08 ng/mL; the “Sirolimus concentration, Liver, Mean Value” came to 9.12 ng/g; the “Sirolimus concentration, Tumor, Mean Value” is given as 16.7 ng/g. Besides, in the data set “in vivo” (in vivo, Blood Plasma), the concentration at 0.5 h is 20.5 ng/mL, the concentration at 12 h was 1.3 ng/mL and the concentration at 48 h came out at 0.16 ng/mL. For the same compound, in the data set “in vivo” (setting [5]), the concentration at 0.5 h was found to be 30.9 ng/mL, the concentration at 2 h came to 11.7 ng/mL, the concentration at 5 h was found to be 3.67 ng/mL and the concentration at 12 h is 1.27 ng/mL. In the data set “in vivo” (setting [5]), this compound gave a concentration at 48 h of 0.164 ng/mL. Moreover, in the data set “in vivo” (in vivo, Liver), the concentration at 0.5 h came out at 392 ng/g, the concentration at 2 h amounted to 103 ng/g and the concentration at 5 h was 45.5 ng/g. In the data set “in vivo” (in vivo, Liver, Mean Value), this compound gave a concentration at 0.5 h of 474 ng/g, a concentration at 2 h of 151 ng/g, a concentration at 5 h of 57.6 ng/g and a concentration at 12 h of 28.6 ng/g. For the same compound, the concentration at 48 h in the data set “in vivo” (in vivo, Liver, Mean Value) was found to be 3.11 ng/g. In addition, in “in vivo” (in vivo, Tumor), the concentration at 2 h is 31.1 ng/g, the concentration at 12 h is 9.37 ng/g and the concentration at 48 h worked out at 6.48 ng/g. Moreover, in “in vivo” (in vivo, Tumor, Mean Value), the concentration at 2 h stood at 28.8 ng/g, the concentration at 5 h is 16.6 ng/g, the concentration at 12 h amounted to 10.5 ng/g and the concentration at 48 h is 6.52 ng/g. Further, the Cmax in “in vivo” (in vivo, Cmax (ng/g or ng/ml)) turned out to be 30.9 ng/mL. In addition, in the data set “in vivo” (liver), the Kp stood at 16.8. The Kp in the data set “in vivo” (tumor) was found to be 4.77. For the same compound, in data set [2], the “Body Weight (g) end” value turned out to be 17.7 g, the “Body Weight (g) start” value is on record as 19.9 g, the RTV was determined as 17 ± 7.0 and the “T/C (%)” value was determined as 69.0%. In addition, in data set [2], the “TV (mm^3) d21” value turned out to be 1446 ± 630 mm^3. In addition, the “TV (mm^3) d0” value in data set [2] (baseline) is given as 85 ± 17 mm^3.
In the case of `CO[C@H]1CC2CC[C@@H](C)[C@@](O)(O2)C(=O)C(=O)N2CCCCC2C(=O)O[C@H]([C@H](C)C[C@@H]2CC[C@@H](OC(=O)OCC3COC(C)(C)O3)[C@H](OC)C2)CC(=O)[C@H](C)/C=C(\C)[C@@H](OC(=O)OCC2COC(C)(C)O2)[C@@H](OC)C(=O)[C@H](C)C[C@H](C)/C=C/C=C/C=C/1C` (some centres unmarked) [Y230], the “Safety Index CC50/IC50” value in data set [3] (Table 10) is recorded as over 18.9. The CC50 is 39800 µM in data set [3] (Table 10, value beyond the >100 μM bound, read-out: Cytotoxicity CC50, value in brackets) and over 100 µM in data set [3] (Table 10, read-out: Cytotoxicity CC50). The same compound had an IC50 with T Cells of 5.3 µM.
Regarding `C[C@@H]1C[C@H]2[C@@H]3CCC4=CC(=O)C=C[C@]4(C)[C@@]3(F)[C@@H](O)C[C@]2(C)[C@@]1(O)C(=O)CO` [Dex], the “average ear swelling degree” value in data set [4] stood at 0.13 mm.
